Laboratory results as given in PMC10239507, “Development of allosteric and selective CDK2 inhibitors for contraception with negative cooperativity to cyclin binding” (Nature Communications, 2023).

Columns and labels:
Test in all cases: biochemical
[1] = molecular target: T1, 371 kinases (kinase named in each endpoint) (Homo sapiens, UniProt Q15418); conditions: RSK1
T1 construct: purchased Reaction Biology

[2] = molecular target: T2, 371 kinases (kinase named in each endpoint) (Homo sapiens, UniProt P19784); conditions: CK2A2
T2 construct: purchased Reaction Biology

[3] = molecular target: T3, 371 kinases (kinase named in each endpoint) (Homo sapiens, UniProt O14920); conditions: IKKb/IKBKB
T3 construct: purchased Reaction Biology

[4] = molecular target: T4, 371 kinases (kinase named in each endpoint) (Homo sapiens, UniProt P36896); conditions: ALK4/ACVR1B
T4 construct: purchased Reaction Biology

[5] = molecular target: T5, 371 kinases (kinase named in each endpoint) (Homo sapiens, UniProt P08922); conditions: ROS/ROS1
T5 construct: purchased Reaction Biology

[6] = molecular target: T6, 371 kinases (kinase named in each endpoint) (Homo sapiens, UniProt Q16832); conditions: DDR2
T6 construct: purchased Reaction Biology

[7] = molecular target: T7, 371 kinases (kinase named in each endpoint) (Homo sapiens, UniProt Q13555); conditions: CAMK2g
T7 construct: purchased Reaction Biology

[8] = molecular target: T8, 371 kinases (kinase named in each endpoint) (Homo sapiens, UniProt Q5TCY1); conditions: TTBK1
T8 construct: purchased Reaction Biology

[9] = molecular target: T9, 371 kinases (kinase named in each endpoint) (Homo sapiens, UniProt Q9NR20); conditions: DYRK4
T9 construct: purchased Reaction Biology

[10] = molecular target: T10, 371 kinases (kinase named in each endpoint) (Homo sapiens, UniProt P28482); conditions: ERK2/MAPK1
T10 construct: purchased Reaction Biology

[11] = molecular target: T11, 371 kinases (kinase named in each endpoint) (Homo sapiens, UniProt Q02156); conditions: PKCEPSILON
T11 construct: purchased Reaction Biology

[12] = molecular target: T12, 371 kinases (kinase named in each endpoint) (Homo sapiens, UniProt P49840); conditions: GSK3a
T12 construct: purchased Reaction Biology

[13] = molecular target: T13, 371 kinases (kinase named in each endpoint) (Homo sapiens, UniProt P53671); conditions: LIMK2
T13 construct: purchased Reaction Biology

[14] = test system: 371 kinases (kinase named in each endpoint); conditions: 10 µM
[15] = molecular target: T14, 371 kinases (kinase named in each endpoint) (Homo sapiens, UniProt P35968); conditions: KDR/VEGFR2
T14 construct: purchased Reaction Biology

[16] = molecular target: T15, 371 kinases (kinase named in each endpoint) (Homo sapiens, UniProt P15056); conditions: BRAF
T15 construct: purchased Reaction Biology

[17] = molecular target: T16, 371 kinases (kinase named in each endpoint) (Homo sapiens, UniProt P53779); conditions: JNK3
T16 construct: purchased Reaction Biology

[18] = molecular target: T17, 371 kinases (kinase named in each endpoint) (Homo sapiens, UniProt P53667); conditions: LIMK1
T17 construct: purchased Reaction Biology

[19] = molecular target: T18, 371 kinases (kinase named in each endpoint) (Homo sapiens, UniProt Q9NRH2); conditions: SNRK
T18 construct: purchased Reaction Biology

[20] = molecular target: T19, 371 kinases (kinase named in each endpoint) (Homo sapiens, UniProt P29320); conditions: EPHA3
T19 construct: purchased Reaction Biology

[21] = molecular target: T20, 371 kinases (kinase named in each endpoint) (Homo sapiens, UniProt P10398); conditions: ARAF
T20 construct: purchased Reaction Biology

[22] = molecular target: T21, 371 kinases (kinase named in each endpoint) (Homo sapiens, UniProt Q9P1W9); conditions: PIM2
T21 construct: purchased Reaction Biology

[23] = molecular target: T22, 371 kinases (kinase named in each endpoint) (Homo sapiens, UniProt Q9HBH9); conditions: MNK2
T22 construct: purchased Reaction Biology

[24] = molecular target: T23, 371 kinases (kinase named in each endpoint) (Homo sapiens, UniProt O96017); conditions: CHK2
T23 construct: purchased Reaction Biology

[25] = molecular target: T24, 371 kinases (kinase named in each endpoint) (Homo sapiens, UniProt O95819); conditions: HGK/MAP4K4
T24 construct: purchased Reaction Biology

[26] = molecular target: T25, 371 kinases (kinase named in each endpoint) (Homo sapiens, UniProt O00311); conditions: CDC7/DBF4
T25 construct: purchased Reaction Biology

[27] = molecular target: T26, 371 kinases (kinase named in each endpoint) (Homo sapiens, UniProt Q9UM73); conditions: ALK
T26 construct: purchased Reaction Biology

[28] = molecular target: T27, 371 kinases (kinase named in each endpoint) (Homo sapiens, UniProt P37173); conditions: TGFBR2
T27 construct: purchased Reaction Biology

[29] = molecular target: T28, 371 kinases (kinase named in each endpoint) (Homo sapiens, UniProt Q9HC98); conditions: NEK6
T28 construct: purchased Reaction Biology

[30] = molecular target: T29, 371 kinases (kinase named in each endpoint) (Homo sapiens, UniProt Q9Y243); conditions: AKT3
T29 construct: purchased Reaction Biology

[31] = molecular target: T30, 371 kinases (kinase named in each endpoint) (Homo sapiens, UniProt Q9NYY3); conditions: PLK2
T30 construct: purchased Reaction Biology

[32] = molecular target: T31, 371 kinases (kinase named in each endpoint) (Homo sapiens, UniProt P06241); conditions: FYN
T31 construct: purchased Reaction Biology

[33] = molecular target: T32, 371 kinases (kinase named in each endpoint) (Homo sapiens, UniProt O43293); conditions: ZIPK/DAPK3
T32 construct: purchased Reaction Biology

[34] = molecular target: T33, 371 kinases (kinase named in each endpoint) (Homo sapiens, UniProt Q9Y6E0); conditions: MST3/STK24
T33 construct: purchased Reaction Biology

[35] = molecular target: T34, 371 kinases (kinase named in each endpoint) (Homo sapiens, UniProt Q96RG2); conditions: PASK
T34 construct: purchased Reaction Biology

[36] = molecular target: T35, 371 kinases (kinase named in each endpoint) (Homo sapiens, UniProt P25098); conditions: GRK2
T35 construct: purchased Reaction Biology

T12 sequence (P49840 whole entry): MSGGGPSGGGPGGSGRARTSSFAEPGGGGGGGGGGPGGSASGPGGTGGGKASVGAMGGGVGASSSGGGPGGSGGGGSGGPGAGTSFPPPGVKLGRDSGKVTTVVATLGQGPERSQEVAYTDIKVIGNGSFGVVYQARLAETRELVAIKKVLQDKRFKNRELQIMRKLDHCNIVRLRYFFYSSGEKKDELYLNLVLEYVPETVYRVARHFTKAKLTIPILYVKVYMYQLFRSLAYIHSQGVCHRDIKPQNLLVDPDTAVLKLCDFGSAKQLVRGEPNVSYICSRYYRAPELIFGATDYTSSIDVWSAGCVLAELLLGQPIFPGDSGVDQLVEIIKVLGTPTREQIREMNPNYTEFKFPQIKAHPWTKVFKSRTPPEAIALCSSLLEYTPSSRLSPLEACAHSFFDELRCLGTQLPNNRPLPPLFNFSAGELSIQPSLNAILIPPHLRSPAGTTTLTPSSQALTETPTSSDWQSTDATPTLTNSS
T34 sequence (Q96RG2 whole entry): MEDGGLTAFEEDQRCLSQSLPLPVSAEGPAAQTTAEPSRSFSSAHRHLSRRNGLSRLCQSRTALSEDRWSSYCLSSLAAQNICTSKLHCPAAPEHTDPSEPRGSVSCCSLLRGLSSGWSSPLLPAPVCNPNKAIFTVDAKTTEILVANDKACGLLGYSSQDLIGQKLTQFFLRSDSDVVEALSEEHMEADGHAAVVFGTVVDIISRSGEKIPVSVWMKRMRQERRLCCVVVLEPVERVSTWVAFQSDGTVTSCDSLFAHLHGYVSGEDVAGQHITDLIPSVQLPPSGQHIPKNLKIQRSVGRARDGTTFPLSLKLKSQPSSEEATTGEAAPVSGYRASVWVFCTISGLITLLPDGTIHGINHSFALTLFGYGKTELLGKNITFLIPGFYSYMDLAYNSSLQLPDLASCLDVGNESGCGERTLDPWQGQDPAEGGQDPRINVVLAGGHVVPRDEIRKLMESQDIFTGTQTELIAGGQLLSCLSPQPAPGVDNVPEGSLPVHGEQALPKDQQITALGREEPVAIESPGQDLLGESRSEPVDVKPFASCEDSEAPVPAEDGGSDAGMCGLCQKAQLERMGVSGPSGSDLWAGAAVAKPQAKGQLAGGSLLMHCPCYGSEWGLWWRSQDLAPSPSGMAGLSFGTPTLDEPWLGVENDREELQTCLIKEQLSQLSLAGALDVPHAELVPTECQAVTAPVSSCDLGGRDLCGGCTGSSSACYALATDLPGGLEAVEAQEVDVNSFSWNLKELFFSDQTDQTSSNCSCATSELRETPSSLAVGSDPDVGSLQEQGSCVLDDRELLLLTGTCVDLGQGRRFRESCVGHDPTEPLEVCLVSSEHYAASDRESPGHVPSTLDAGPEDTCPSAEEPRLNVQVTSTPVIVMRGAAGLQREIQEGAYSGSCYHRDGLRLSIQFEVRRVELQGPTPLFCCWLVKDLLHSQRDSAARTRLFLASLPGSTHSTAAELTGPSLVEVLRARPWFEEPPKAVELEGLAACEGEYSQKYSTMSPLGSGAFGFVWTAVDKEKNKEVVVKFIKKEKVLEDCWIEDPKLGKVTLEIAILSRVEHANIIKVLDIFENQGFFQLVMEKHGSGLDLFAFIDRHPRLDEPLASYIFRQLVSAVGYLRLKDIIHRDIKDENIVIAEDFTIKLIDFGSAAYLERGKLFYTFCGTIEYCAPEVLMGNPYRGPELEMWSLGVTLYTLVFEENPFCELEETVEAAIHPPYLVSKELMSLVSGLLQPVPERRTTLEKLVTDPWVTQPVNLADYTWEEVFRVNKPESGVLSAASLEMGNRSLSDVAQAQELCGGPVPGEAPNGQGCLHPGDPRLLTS
T7 sequence (Q13555 whole entry): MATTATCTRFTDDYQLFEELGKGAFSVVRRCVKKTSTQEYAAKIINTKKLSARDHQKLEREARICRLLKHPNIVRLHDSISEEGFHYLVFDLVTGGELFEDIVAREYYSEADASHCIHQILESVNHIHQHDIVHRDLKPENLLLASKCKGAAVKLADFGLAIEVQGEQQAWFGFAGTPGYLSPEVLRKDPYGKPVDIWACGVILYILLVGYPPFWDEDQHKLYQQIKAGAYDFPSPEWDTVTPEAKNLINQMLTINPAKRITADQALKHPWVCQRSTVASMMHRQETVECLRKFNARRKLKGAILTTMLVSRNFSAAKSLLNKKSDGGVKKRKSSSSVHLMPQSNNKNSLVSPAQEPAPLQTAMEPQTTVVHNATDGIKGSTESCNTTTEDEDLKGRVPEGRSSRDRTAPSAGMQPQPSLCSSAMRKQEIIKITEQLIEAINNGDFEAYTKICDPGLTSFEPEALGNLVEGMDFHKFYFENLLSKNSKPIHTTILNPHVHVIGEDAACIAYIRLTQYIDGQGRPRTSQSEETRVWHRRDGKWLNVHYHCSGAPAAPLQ
T1 sequence (Q15418 whole entry): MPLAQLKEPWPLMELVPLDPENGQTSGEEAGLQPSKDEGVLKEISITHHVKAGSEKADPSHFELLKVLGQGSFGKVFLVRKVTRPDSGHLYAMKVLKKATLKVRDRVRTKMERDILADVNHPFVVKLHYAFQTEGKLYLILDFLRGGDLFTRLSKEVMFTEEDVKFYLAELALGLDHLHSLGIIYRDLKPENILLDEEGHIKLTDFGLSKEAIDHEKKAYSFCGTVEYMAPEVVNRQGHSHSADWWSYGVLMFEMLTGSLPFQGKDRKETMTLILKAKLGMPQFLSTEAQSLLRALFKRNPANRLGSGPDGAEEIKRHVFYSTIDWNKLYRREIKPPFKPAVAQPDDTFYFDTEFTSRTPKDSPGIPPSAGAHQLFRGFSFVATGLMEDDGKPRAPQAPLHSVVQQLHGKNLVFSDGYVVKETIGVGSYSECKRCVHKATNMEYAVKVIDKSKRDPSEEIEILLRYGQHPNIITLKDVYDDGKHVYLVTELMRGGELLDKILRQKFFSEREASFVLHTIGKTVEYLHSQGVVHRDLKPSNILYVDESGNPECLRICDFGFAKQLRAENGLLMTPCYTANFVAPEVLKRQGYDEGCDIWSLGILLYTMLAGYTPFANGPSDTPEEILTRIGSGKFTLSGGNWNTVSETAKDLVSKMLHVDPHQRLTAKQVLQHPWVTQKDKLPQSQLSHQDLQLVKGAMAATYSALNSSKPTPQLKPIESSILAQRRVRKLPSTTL
T8 sequence (Q5TCY1 whole entry): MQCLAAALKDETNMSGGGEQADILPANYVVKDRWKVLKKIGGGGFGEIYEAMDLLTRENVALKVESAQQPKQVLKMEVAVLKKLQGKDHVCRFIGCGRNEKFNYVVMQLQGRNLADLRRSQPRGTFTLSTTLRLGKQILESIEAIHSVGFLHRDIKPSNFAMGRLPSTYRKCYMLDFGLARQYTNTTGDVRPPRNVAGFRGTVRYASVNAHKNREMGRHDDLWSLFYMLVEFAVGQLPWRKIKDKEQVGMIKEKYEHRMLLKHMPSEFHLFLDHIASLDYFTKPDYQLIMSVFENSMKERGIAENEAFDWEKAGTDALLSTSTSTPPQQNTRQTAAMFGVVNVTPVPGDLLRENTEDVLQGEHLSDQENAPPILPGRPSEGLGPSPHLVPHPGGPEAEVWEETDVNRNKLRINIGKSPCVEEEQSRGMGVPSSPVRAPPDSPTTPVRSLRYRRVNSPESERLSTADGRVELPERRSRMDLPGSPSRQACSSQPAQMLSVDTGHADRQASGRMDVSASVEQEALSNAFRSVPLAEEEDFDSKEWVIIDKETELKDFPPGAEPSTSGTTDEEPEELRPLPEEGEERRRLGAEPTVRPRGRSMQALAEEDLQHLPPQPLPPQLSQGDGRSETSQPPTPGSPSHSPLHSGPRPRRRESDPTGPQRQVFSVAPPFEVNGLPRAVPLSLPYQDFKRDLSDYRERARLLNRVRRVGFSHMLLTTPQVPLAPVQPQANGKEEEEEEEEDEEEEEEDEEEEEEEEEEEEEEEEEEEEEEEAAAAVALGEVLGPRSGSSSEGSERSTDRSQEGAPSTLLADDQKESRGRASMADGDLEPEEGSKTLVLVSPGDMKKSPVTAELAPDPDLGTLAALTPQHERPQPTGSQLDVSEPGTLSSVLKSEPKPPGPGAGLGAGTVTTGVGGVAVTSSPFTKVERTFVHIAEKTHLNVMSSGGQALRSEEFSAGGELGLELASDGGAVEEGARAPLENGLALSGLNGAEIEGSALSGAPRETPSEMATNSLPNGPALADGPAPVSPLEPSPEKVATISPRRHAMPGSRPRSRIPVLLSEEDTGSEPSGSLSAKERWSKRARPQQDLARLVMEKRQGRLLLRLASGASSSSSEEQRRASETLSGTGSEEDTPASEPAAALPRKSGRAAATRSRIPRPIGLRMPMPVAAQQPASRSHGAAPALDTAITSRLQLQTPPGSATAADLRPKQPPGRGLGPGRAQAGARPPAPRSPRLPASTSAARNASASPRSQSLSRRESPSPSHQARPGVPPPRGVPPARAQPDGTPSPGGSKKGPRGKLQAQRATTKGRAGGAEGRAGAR
T22 sequence (Q9HBH9 whole entry): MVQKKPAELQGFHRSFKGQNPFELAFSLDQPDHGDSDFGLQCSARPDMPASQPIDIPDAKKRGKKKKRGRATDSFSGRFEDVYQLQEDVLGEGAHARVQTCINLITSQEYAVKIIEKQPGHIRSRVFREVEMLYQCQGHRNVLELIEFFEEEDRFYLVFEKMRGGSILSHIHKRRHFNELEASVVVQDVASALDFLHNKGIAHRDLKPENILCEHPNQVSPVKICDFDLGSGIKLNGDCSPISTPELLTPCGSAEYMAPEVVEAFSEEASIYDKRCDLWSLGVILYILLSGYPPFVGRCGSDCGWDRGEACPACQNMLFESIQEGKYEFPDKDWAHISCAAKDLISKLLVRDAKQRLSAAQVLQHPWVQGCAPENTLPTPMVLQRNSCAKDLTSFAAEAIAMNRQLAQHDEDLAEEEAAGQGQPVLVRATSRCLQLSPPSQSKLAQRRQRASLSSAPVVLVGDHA

O=C(O)c1cc(C(F)(F)F)ccc1NCCc1c[nH]c2cc(Br)ccc12 [Compound 5, 2-((2-(6-Bromo-1H-indol-3-yl)ethyl)amino)−5-(trifluoromethyl)benzoic Acid]
activity at 10 µM [1]: 83.1 ± 2.8% | activity at 10 µM [2]: 46.9 ± 0.5% | activity at 10 µM [3]: 82.1 ± 0.2% | activity at 10 µM [4]: 66.7 ± 0.1% | activity at 10 µM [5]: 94.7 ± 1.4% | activity at 10 µM [6]: 103 ± 3.6% | activity at 10 µM [7]: 74.4% | activity at 10 µM [8]: 103 ± 3.1% | activity at 10 µM [9]: 96.9 ± 2.5% | activity at 10 µM [10]: 118 ± 3% | activity at 10 µM [11]: 96.1 ± 0.2% | activity at 10 µM [12]: 67.6 ± 0.3% | activity at 10 µM [13]: 75.1 ± 1.7% | inhibition of any kinase [14]: ≤ 80% | share of the 371 kinases tested with >50% inhibition [14]: 4% | % Activity ([14]; LYN B): 93.2 ± 0.3% | % Activity ([14]; PKCB2): 100.1 ± 1.4% | % Activity ([14]; PKG1B): 78.0 ± 0.4% | activity at 10 µM [15]: 87.7 ± 1.6% | activity at 10 µM [16]: 98.7 ± 0.5% | activity at 10 µM [17]: 90.9 ± 0.3% | activity at 10 µM [18]: 84.2% | activity at 10 µM [19]: 80.4 ± 2.1% | activity at 10 µM [20]: 99.7 ± 1.6% | activity at 10 µM [21]: 91.1 ± 0.8% | activity at 10 µM [22]: 92.4 ± 0.6% | activity at 10 µM [23]: 93.3 ± 1.9% | activity at 10 µM [24]: 90.2 ± 1.5% | activity at 10 µM [25]: 50.4 ± 0.4% | activity at 10 µM [26]: 77.9 ± 2.9% | activity at 10 µM [27]: 93.8 ± 0.7% | activity at 10 µM [28]: 79.2 ± 1.5% | activity at 10 µM [29]: 77.6 ± 0.1% | activity at 10 µM [30]: 90.2 ± 0.5% | activity at 10 µM [31]: 67.4 ± 0.7% | activity at 10 µM [32]: 86.4 ± 1.8% | activity at 10 µM [33]: 74.5 ± 3.3% | activity at 10 µM [34]: 104 ± 1.9% | activity at 10 µM [35]: 95.2 ± 2.9% | activity at 10 µM [36]: 96.5 ± 0.4%
